# From US20140128365A1, “PYRIDONE/HYDROXYPYRIDINE 11-BETA HYDROXYSTEROID DEHYDROGENASE TYPE I INHIBITORS” (BRISTOL-MYERS SQUIBB COMPANY, priority 2012, published 2014)
# pIC50: −log10 of the molar value. Like-named read-outs stand apart in the source and are kept apart here.
# Assays:
# [1] = target: T1, recombinant human 11beta-HSD1 (Homo sapiens, UniProt P28845); assay: In vitro inhibition of recombinant human 11beta-HSD1, microsomal Scintillation Proximity Assay (SPA); type: biochemical; conditions: microsomes from HEK 293 EBNA cells, 250 nM [3H]-cortisone, 500 μM NADPH, pH 6.5, room temperature
# T1 construct: made in house; microsomal fraction used as enzyme source
# T1 sequence (P28845 whole entry): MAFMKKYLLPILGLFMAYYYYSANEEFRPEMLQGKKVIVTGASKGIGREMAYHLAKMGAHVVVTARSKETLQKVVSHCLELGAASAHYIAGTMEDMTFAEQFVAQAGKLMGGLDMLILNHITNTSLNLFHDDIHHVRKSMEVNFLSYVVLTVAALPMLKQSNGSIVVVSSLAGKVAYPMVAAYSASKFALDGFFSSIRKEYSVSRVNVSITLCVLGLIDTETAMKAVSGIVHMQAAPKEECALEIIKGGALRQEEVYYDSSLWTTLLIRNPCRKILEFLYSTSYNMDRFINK
# Protocol: The in vitro inhibition of recombinant human 11beta-HSD1 was determined as follows.
# Cells were grown in DMEM (high glucose) containing MEM non-essential amino acids, L-glutamine, hygromycine B (200 ug/ml), and G418 (200 ug/ml). The cell pellets were homogenized, and the microsomal fraction was obtained by differential centrifugation. 11beta-HSD1 over expressed microsomes were used as the enzyme source for the Scintillation Proximity Assay (SPA). […] The reaction was terminated with the addition of 1 mM 18β-glycerrhentic acid. SPA reagent mixture (YSi anti-rabbit IgG, anti-cortisol antibody in 50 mM Tris, pH 8.0 containing 1% CHAPS and 1% glycerol) was added and the reaction was further incubated at room temperature over night and counted in TopCount.
# In the structures set forth in Table 10, the “—O” attached to the carbon adjacent to the nitrogen in the bicyclic core is used to denote an “—OH” group as indicated in Formula I. Similarly, in the structures set forth in Table 10, the “N” adjacent to the carbon atom substituted with ═O in the bicyclic or tricyclic core is used to denote an “NH” moiety as indicated in Formula I-t.
# [2] = tested on: hepatic glucose production; conditions: seven day treatment, patients with type 2 diabetes, versus placebo group; cited from earlier work
Compound,pIC50 [1],other results
"4,7-Dichloro-1-(2-chlorobenzylthio)isoquinolin-3-ol [Example 109]",–,pIC50 ([1]; read-out: IC50 (concentration of compound required for 50% inhibition of cortisol formation)): 6.17
COc1cccc(CSc2nc(O)c(C#N)c3c2CCCC3)c1 [Example 17],6.34,–
CC1(C)[C@@H](OC(=O)CCC(=O)O)CC[C@]2(C)[C@H]3C(=O)C=C4[C@@H]5C[C@@](C)(C(=O)O)CC[C@]5(C)CC[C@@]4(C)[C@]3(C)CC[C@@H]12 [carbenoxolone],–,hepatic glucose production [2]: decrease in hepatic glucose production

# Further lines, with some results ahead:
pIC50 [1],Compound,other results
6.33,COc1ccc(CSc2nc(O)c(C#N)c3c2CCCC3)cc1 [Example 25],–
< 5.00,N#Cc1c(O)nc(SCc2ccccc2C(=O)O)c2c1CCCC2 [Example 34],–
8.84,N#Cc1ccccc1CSc1nc(O)c(C#N)c2ccc(F)cc12 [Example 153],–
